Results published in patent publication US10450356B2, “PRAME derived peptides and immunogenic compositions comprising these” (Academisch Ziekenhuis Leiden H.O.D.N. LUMC, priority 2007, dated 2019).
Marks after values point to notes of the source that are not given here.

Target: T1, 20S proteasomes purified from a B-LCL cell line (immunoproteasomes) (Homo sapiens, UniProt P28062+P28065+P40306)
T1 construct: 20S proteasomes were purified from a B-LCL cell line; endogenous in cells; purified after Groettrup et al. 1995
Experiment: In vitro proteasome mediated cleavage analysis
Format: biochemical
Design: key to Intact in fragment / Intact Fragment: intact epitope found in digestion fragments: (+), present; (-), not present; key to Processing C-term: generation by proteasome-mediated digestion of fragments containing the correct C-terminus: (++) fragments present for >5%; (+) present for <5%; (-) no fragments containing the C-term. were found
Conditions: for Processing C-term: generation by proteasome-mediated digestion of fragments containing the correct C-terminus: 1 h digestion; for Intact Fragment: intact epitope found in digestion fragments: after 1 h digestion; for C-term. generation: generation of C-terminus of the epitope after 1 h digestion; for Intact in fragment: intact epitope found in digestion fragments after 1 h digestion
Description: 20S proteasomes were purified from a B-LCL cell line as described by Groettrup et al. (J. Biol. Chem. 270:23808-23815; 1995). This cell type is known to contain immunoproteasomes. High LMP2 and 7 content was confirmed by 2-D immuno-blotting. To assess kinetics, digestions were performed with different incubation periods. Peptides (27 mers, 20 μg) were incubated with 1 μg of purified proteasome at 37° C. for 1 h, 4 h and 24 h in 300 μl proteasome digestion buffer as described (Eggers, et al. 1995. J. Exp. Med. 182:1865). Trifluoroacetic acid was added to stop the digestion and samples were stored at −20° C. before mass spectrometric analysis.
Electrospray ionization mass spectrometry was performed on a hybrid quadrupole time-of-flight mass spectrometer, a Q-TOF (Micromass), equipped with an on-line nanoelectrospray interface with an approximate flow rate of 250 nL/min. Injections were done with a dedicated micro/nano HPLC autosampler, the FAMOS (LC Packings). Digestion solutions were diluted five times in water-methanol-acetic acid (95:5:1, v/v/v), and trapped on the precolumn (MCA-300-05-C8; LC Packings) in water-methanol-acetic acid (95:5:1, v/v/v). Washing of the precolumn was done for 3 min to remove the buffers present in the digests. Subsequently, the trapped analytes were eluted with a steep gradient going from 70% B to 90% B in 10 min, with a flow of 250 nl/min (A: water-methanol-acetic acid (95:5:1, v/v/v); B: water-methanol-acetic acid (10:90:1, v/v/v)). This low elution rate allows for a few additional MS/MS experiments if necessary during the same elution. Mass spectra were recorded from mass 50-2000 Da every second. The resolution allows direct determination of the monoisotopic mass, also from multiple charged ions. The peaks in the mass spectrum were searched in the digested precursor peptide using the Biolynx/proteins software (Micromass). The intensity of the peaks in the mass spectra was used to establish the relative amounts of peptides generated by proteasome digestion.

Structure (SMILES): CC(C)C[C@H](NC(=O)[C@@H](NC(=O)[C@@H]1CCCN1C(=O)[C@H](CC(C)C)NC(=O)[C@H](CCCCN)NC(=O)[C@H](Cc1c[nH]c2ccccc12)NC(=O)[C@@H](NC(=O)[C@@H](N)CS)[C@@H](C)O)[C@@H](C)O)C(=O)N[C@@H](C)C(=O)N[C@@H](CCCCN)C(=O)O
- Processing C-term: generation by proteasome-mediated digestion of fragments containing the correct C-terminus: -
- Intact Fragment: intact epitope found in digestion fragments: -

Structure (SMILES): CC(C)C[C@H](NC(=O)[C@@H](NC(=O)[C@@H]1CCCN1C(=O)[C@H](CC(C)C)NC(=O)[C@H](CCCCN)NC(=O)[C@H](Cc1c[nH]c2ccccc12)NC(=O)[C@@H](NC(=O)[C@@H](N)CS)[C@@H](C)O)[C@@H](C)O)C(=O)N[C@@H](C)C(=O)O
- Processing C-term: generation by proteasome-mediated digestion of fragments containing the correct C-terminus: -
- Intact Fragment: intact epitope found in digestion fragments: -

Structure (SMILES): CC[C@H](C)[C@H](N)C(=O)N[C@@H](Cc1ccccc1)C(=O)N[C@@H](C)C(=O)N[C@@H](CCSC)C(=O)N1CCC[C@H]1C(=O)N[C@@H](CCSC)C(=O)N[C@@H](CCC(N)=O)C(=O)N[C@@H](CC(=O)O)C(=O)N[C@H](C(=O)O)[C@@H](C)CC
- Processing C-term: generation by proteasome-mediated digestion of fragments containing the correct C-terminus: -
- Intact Fragment: intact epitope found in digestion fragments: -

Structure (SMILES): CC[C@H](C)[C@H](NC(=O)[C@H](CCSC)NC(=O)[C@H](CCC(N)=O)NC(=O)CNC(=O)[C@H](CC(C)C)NC(=O)[C@H](Cc1ccc(O)cc1)NC(=O)[C@@H]1CCCN1C(=O)[C@H](CO)NC(=O)[C@H](Cc1ccccc1)NC(=O)[C@@H](N)CCCCN)C(=O)O
- Processing C-term: generation by proteasome-mediated digestion of fragments containing the correct C-terminus: -
- Intact Fragment: intact epitope found in digestion fragments: -

Structure (SMILES): CC[C@H](C)[C@H](NC(=O)[C@H](CC(=O)O)NC(=O)[C@H](CCC(N)=O)NC(=O)[C@H](CCSC)NC(=O)[C@@H]1CCCN1C(=O)[C@H](CCSC)NC(=O)[C@H](C)NC(=O)[C@H](Cc1ccccc1)NC(=O)[C@@H](NC(=O)[C@@H](N)CCCCN)[C@@H](C)CC)C(=O)O
- Processing C-term: generation by proteasome-mediated digestion of fragments containing the correct C-terminus: -
- Intact Fragment: intact epitope found in digestion fragments: -

Structure (SMILES): CC(C)C[C@H](NC(=O)[C@H](C)NC(=O)[C@H](CCC(N)=O)NC(=O)[C@H](CC(C)C)NC(=O)[C@H](CS)NC(=O)[C@H](CCC(N)=O)NC(=O)[C@H](CC(C)C)NC(=O)[C@H](CO)NC(=O)[C@@H](N)CC(C)C)C(=O)N[C@@H](Cc1ccc(O)cc1)C(=O)O
- Processing C-term: generation by proteasome-mediated digestion of fragments containing the correct C-terminus: -
- Intact Fragment: intact epitope found in digestion fragments: -

Structure (SMILES): CC(C)C[C@H](NC(=O)[C@H](Cc1ccccc1)NC(=O)[C@H](Cc1ccccc1)NC(=O)[C@H](CC(C)C)NC(=O)[C@H](CO)NC(=O)[C@H](CC(=O)O)NC(=O)[C@@H](NC(=O)[C@H](Cc1ccc(O)cc1)NC(=O)[C@@H](N)CC(C)C)C(C)C)C(=O)O
- Processing C-term: generation by proteasome-mediated digestion of fragments containing the correct C-terminus: ++ ((++) fragments present for >5%)
- Intact Fragment: intact epitope found in digestion fragments: +
- C-term. generation: ++ (abundant (++) present for >5%)
- Intact in fragment: +

Structure (SMILES): CC(C)C[C@H](NC(=O)[C@H](CC(C)C)NC(=O)[C@H](CC(C)C)NC(=O)[C@H](CCCNC(=N)N)NC(=O)[C@H](CCCNC(=N)N)NC(=O)[C@H](CC(C)C)NC(=O)[C@@H](N)CC(N)=O)C(=O)N[C@@H](CO)C(=O)N[C@@H](Cc1c[nH]cn1)C(=O)O
- Processing C-term: generation by proteasome-mediated digestion of fragments containing the correct C-terminus: -
- Intact Fragment: intact epitope found in digestion fragments: -

Structure (SMILES): CC(C)C[C@H](NC(=O)[C@@H](NC(=O)[C@@H]1CCCN1)[C@@H](C)O)C(=O)N[C@@H](C)C(=O)N[C@@H](CCCCN)C(=O)N[C@@H](Cc1ccccc1)C(=O)N[C@@H](CO)C(=O)N1CCC[C@H]1C(=O)N[C@@H](Cc1ccc(O)cc1)C(=O)O
- Processing C-term: generation by proteasome-mediated digestion of fragments containing the correct C-terminus: -
- Intact Fragment: intact epitope found in digestion fragments: -

Structure (SMILES): CC[C@H](C)[C@H](NC(=O)[C@H](CCSC)NC(=O)[C@H](CCC(N)=O)NC(=O)CNC(=O)[C@H](CC(C)C)NC(=O)[C@H](Cc1ccc(O)cc1)NC(=O)[C@@H]1CCCN1)C(=O)N[C@@H](CC(N)=O)C(=O)N[C@@H](CC(C)C)C(=O)O
- Processing C-term: generation by proteasome-mediated digestion of fragments containing the correct C-terminus: +^(k) ((+) present for <5%)
- Intact Fragment: intact epitope found in digestion fragments: +
- Intact in fragment: +

Structure (SMILES): CC(C)C[C@H](NC(=O)[C@H](CO)NC(=O)[C@H](CC(C)C)NC(=O)[C@H](Cc1ccccc1)NC(=O)[C@H](CCC(N)=O)NC(=O)[C@H](CO)NC(=O)[C@@H](NC(=O)[C@H](Cc1ccccc1)NC(=O)[C@@H](N)CCC(N)=O)[C@@H](C)O)C(=O)O
- Processing C-term: generation by proteasome-mediated digestion of fragments containing the correct C-terminus: ++ ((++) fragments present for >5%)
- C-term. generation: ++ (abundant (++) present for >5%)

Structure (SMILES): CC[C@H](C)[C@H](NC(=O)[C@H](Cc1ccc(O)cc1)NC(=O)[C@@H](N)CCC(N)=O)C(=O)N[C@@H](C)C(=O)N[C@@H](CCC(N)=O)C(=O)N[C@@H](Cc1ccccc1)C(=O)N[C@H](C(=O)N[C@@H](CO)C(=O)N[C@@H](CCC(N)=O)C(=O)N[C@@H](Cc1ccccc1)C(=O)O)[C@@H](C)O
- Processing C-term: generation by proteasome-mediated digestion of fragments containing the correct C-terminus: ++ ((++) fragments present for >5%)
- Intact Fragment: intact epitope found in digestion fragments: +
- C-term. generation: ++ (abundant (++) present for >5%)
- Intact in fragment: +

Structure (SMILES): CC[C@H](C)[C@H](NC(=O)[C@H](CO)NC(=O)CNC(=O)[C@H](Cc1c[nH]c2ccccc12)NC(=O)[C@H](CC(C)C)NC(=O)[C@@H](N)CCCNC(=N)N)C(=O)N[C@@H](CCC(N)=O)C(=O)N[C@@H](CO)C(=O)N[C@@H](CCCNC(=N)N)C(=O)N[C@@H](Cc1ccc(O)cc1)C(=O)O
- Processing C-term: generation by proteasome-mediated digestion of fragments containing the correct C-terminus: -
- Intact Fragment: intact epitope found in digestion fragments: -

Structure (SMILES): CC(C)C[C@H](NC(=O)[C@H](C)NC(=O)[C@H](CCC(N)=O)NC(=O)[C@H](CC(C)C)NC(=O)[C@H](CS)NC(=O)[C@H](CCC(N)=O)NC(=O)[C@H](CC(C)C)NC(=O)[C@@H](N)CO)C(=O)N[C@@H](Cc1ccc(O)cc1)C(=O)N[C@H](C(=O)O)C(C)C
- Processing C-term: generation by proteasome-mediated digestion of fragments containing the correct C-terminus: + ((+) present for <5%)
- Intact Fragment: intact epitope found in digestion fragments: -

Structure (SMILES): CC(C)C[C@H](NC(=O)[C@H](Cc1ccc(O)cc1)NC(=O)[C@@H]1CCCN1C(=O)[C@H](CO)NC(=O)[C@H](Cc1ccccc1)NC(=O)[C@H](CCCCN)NC(=O)[C@H](C)NC(=O)[C@H](CC(C)C)NC(=O)[C@@H](N)[C@@H](C)O)C(=O)O
- Processing C-term: generation by proteasome-mediated digestion of fragments containing the correct C-terminus: + ((+) present for <5%)
- Intact Fragment: intact epitope found in digestion fragments: +
- C-term. generation: + (low abundant (+) present for <5%)
- Intact in fragment: +

Structure (SMILES): CC[C@H](C)[C@H](NC(=O)[C@@H](N)Cc1ccc(O)cc1)C(=O)N[C@@H](C)C(=O)N[C@@H](CCC(N)=O)C(=O)N[C@@H](Cc1ccccc1)C(=O)N[C@H](C(=O)N[C@@H](CO)C(=O)N[C@@H](CCC(N)=O)C(=O)N[C@@H](Cc1ccccc1)C(=O)N[C@@H](CC(C)C)C(=O)O)[C@@H](C)O
- Processing C-term: generation by proteasome-mediated digestion of fragments containing the correct C-terminus: ++ ((++) fragments present for >5%)
- Intact Fragment: intact epitope found in digestion fragments: +
- C-term. generation: ++ (abundant (++) present for >5%)
- Intact in fragment: +

Structure (SMILES): CC[C@H](C)[C@H](NC(=O)[C@H](CCSC)NC(=O)[C@H](CCC(N)=O)NC(=O)CNC(=O)[C@H](CC(C)C)NC(=O)[C@@H](N)Cc1ccc(O)cc1)C(=O)N[C@@H](CC(N)=O)C(=O)N[C@@H](CC(C)C)C(=O)N[C@@H](CCCNC(=N)N)C(=O)N[C@@H](CCCNC(=N)N)C(=O)O
- Processing C-term: generation by proteasome-mediated digestion of fragments containing the correct C-terminus: -
- Intact Fragment: intact epitope found in digestion fragments: -

Structure (SMILES): CC(C)C[C@H](NC(=O)[C@H](Cc1ccccc1)NC(=O)[C@H](Cc1ccccc1)NC(=O)[C@H](CC(C)C)NC(=O)[C@H](CO)NC(=O)[C@H](CC(=O)O)NC(=O)[C@@H](NC(=O)[C@@H](N)Cc1ccc(O)cc1)C(C)C)C(=O)N[C@@H](CCCNC(=N)N)C(=O)O
- Processing C-term: generation by proteasome-mediated digestion of fragments containing the correct C-terminus: + ((+) present for <5%)
- Intact Fragment: intact epitope found in digestion fragments: -
